According to patent US20220411362A1, “DITERPENOID COMPOUNDS THAT ACT ON PROTEIN KINASE C (PKC)” (K-Gen, Inc., priority 2019, published 2022):
Where two headings read alike, the source gives them in different places.

Legend:
C1b domain of human PKCδ = target: T1, C1b domain of human PKCδ (Homo sapiens, UniProt Q05655); experiment: Competitive 3H-PDBu binding to C1b domain of PKCδ; settings: Ki PKCδ, 3H-PDBu competition
T1 construct: Genes encoding C1b domains of human PKCα, δ, ε, θ, and PKD1 (PKCμ) were synthesized; made in house; host or cells: E. coli BL21(DE3)
How it was run: (§1)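 Binding is reported as Ki, derived from IC50 using Cheng-Prusoff with the experimentally determined 3H-PDBu Kd of each protein preparation. Tracer displacement from recombinant human GST-C1b (E. coli BL21(DE3)) was read by filter scintillation after 10 min at 37° C plus 20 min on ice.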

C1b domain of human PKCα = target: T2, C1b domain of human PKCα (Homo sapiens, UniProt P17252); experiment: biochemical; type: binding; settings: 3H-PDBu competition; for Ki: Ki PKCα
T2 construct: Genes encoding C1b domains of human PKCα, δ, ε, θ, and PKD1 (PKCμ) were synthesized; made in house; host or cells: E. coli BL21(DE3)
How it was run: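 Competitive binding against 3H-PDBu tracer used recombinant GST-C1b fusion protein expressed in E. coli. Incubation ran 10 min at 37°C with shaking, then 20 min on ice, followed by filtration and scintillation counting of trapped 3H-PDBu. Affinity was derived using each protein preparation's experimentally determined Kd for 3H-PDBu.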

C1b domain of human PKCθ = target: T3, C1b domain of human PKCθ (Homo sapiens, UniProt Q04759); experiment: Competitive 3H-PDBu binding to C1b domain of PKCθ
T3 construct: Genes encoding C1b domains of human PKCα, δ, ε, θ, and PKD1 (PKCμ) were synthesized; made in house; host or cells: E. coli BL21(DE3)
T3 sequence (Q04759 231-281 limits assumed): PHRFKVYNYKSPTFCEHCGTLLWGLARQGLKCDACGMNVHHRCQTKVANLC
How it was run: as §1

C1b domain of human PKCε = target: T4, C1b domain of human PKCε (Homo sapiens, UniProt Q02156); experiment: Competitive 3H-PDBu binding to C1b domain of PKCε
T4 construct: Genes encoding C1b domains of human PKCα, δ, ε, θ, and PKD1 (PKCμ) were synthesized; made in house; host or cells: E. coli BL21(DE3)
How it was run: as §1

[1] = target: T5, C1b domain of human PKD1 (PKCμ) (Homo sapiens, UniProt Q15139); experiment: biochemical; type: binding
T5 construct: Genes encoding C1b domains of human PKCα, δ, ε, θ, and PKD1 (PKCμ) were synthesized; made in house; host or cells: E. coli BL21(DE3)
T5 sequence (Q15139 270-320 limits assumed): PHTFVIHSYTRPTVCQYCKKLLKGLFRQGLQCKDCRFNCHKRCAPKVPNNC
How it was run: as §1

[2] = tested on: phosphorylation of PKCμ, PKCδ and Erk1/2 in A549 lung cancer cells; type: cell-based; settings: 0.3 μM, 30 minutes, Western blot (FIG. 1)
Protocol: Cells were then treated with different drugs at indicated concentrations for 30 minutes. […] Imagequant LAS4000 (GE) was used to scan membranes if secondary antibodies anti-mouse IgG HRP conjugate or anti-rabbit IgG HRP conjugate (dilutions from 1:2000-1:10000) were used. For ProteinSimple Wes system, manufacture's procedure was followed (ProteinSimple 12-230 kDa Wes Separation Module) for sample preparation, loading, running, and data analysis.
Phosphorylation of these sites has been linked to acute activation or catalytic activity of the PKC isoforms and Erk1/2. High level of phosphorylation indicates strong activation.

[3] = tested on: A549 non-small cell lung cancer cell line; experiment: Proliferation of A549 (CellTiter Glo); type: cell-based; settings: Homo sapiens, read-out: IC50 μM (A549 Cell Line)
How it was run: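 Luminescent CellTiter Glo read-out after 96 h compound exposure of A549 cells plated at 1,000/well and rested 24 h at 37° C; DMSO kept ≤0.25%, dilutions 3-fold. Inhibition taken relative to DMSO-treated wells; IC50, relative IC50 and top inhibition derived by curve fitting.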

[4] = tested on: Panc2.13 (Pancreatic) cell line; experiment: Proliferation of Panc2.13; type: cell-based; settings: for ratio of (IC50 of K01)/(IC50 of compound), Panc2.13: value in parenthesis; for IC50: read-out: IC50 in μM Panc2.13 (Pancreatic)
Protocol: (§2) The diterpenoid compounds were tested in A549, a non-small cell lung cancer cell line harboring a K-Ras activating mutation. Briefly, A549 cells at a density of 1,000 cells/well were seeded in 96-well plates and incubated at 37° C. for 24 hours. A series of different concentrations of compound stocks (500×) were prepared by 3-fold serial dilution in DMSO. These compounds were further diluted in culture media and then added to cells so that the final DMSO concentration was not exceeding 0.25%. After 96 hours of incubation, 50 μL of CellTiter Glo reagent (Promega) was added to each well and luminescence was measured after 10 minutes using EnVision (PerkinElmer). Luminescence from cells treated with DMSO alone was set as Max and % of inhibition was calculated as follows: Inhibition %=(Max−Sample value)/Max×100. Data was analyzed using XL-fit software (ID Business Solutions Ltd.) and IC50, relative IC50, and % of top inhibition was calculated. Some of the compounds in this disclosure were very potent in blocking proliferation of A549 lung cancer cells at low nM range. In addition, potency of inhibiting A549 proliferation correlated well with its binding affinity to PKCs for this series of compounds. In other words, higher affinity binders had stronger inhibitory effects on A549 proliferation. This further support the notion that activation, rather than inhibition, of certain PKC isoforms is required to block proliferation of cancer cells, some of which may harbor K-Ras mutations. This is in sharp contrast to previous literature and common belief that inhibition of PKC is necessary to block cancer cell growth (Kang, 2014, New Journal of Science, 2014:1-36). Data presented here is in agreement with recent findings that many loss-of-function but not gain-of-function mutations of PKC isoforms have been identified in many human cancers (Antal et al., 2015, Cell, 160:489-502).
(§3) The compounds in this disclosure were tested for their potency in blocking proliferation of a few other cancer cells lines, including K-Ras mutant pancreatic cell lines Panc2.13 and KP-4, leukemia cell line HL-60, and lymphoma cell lines Namalwa and Mino. Similar procedures as in Example 67 were followed. Initial cell numbers seeded in 96-well plates were different for different cell lines: 3000 cells/well for Panc2.13; 800-1000 cells/well for KP-4; 5000 cells/well for HL-60; 5000-10000 cells/well for Namalwa and Mino. A ratio ratio of (IC50 of K01)/(IC50 of compound) (data in parenthesis in Table 5) was used to normalize the compound potency from different assay batches to a common comparator […].

[5] = tested on: KP-4 (Pancreatic) cell line; experiment: Proliferation of KP-4; type: cell-based
Protocol: as §2, §3

[6] = tested on: HL-60 (Leukemia) cell line; experiment: Proliferation of HL-60; type: cell-based
How it was run: (§4)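 Seeding: KP-4 800-1000, HL-60 5000, Namalwa/Mino 5000-10000 cells/well; 24 h, 37° C. 3-fold DMSO dilution series, ≤0.25% DMSO final, 96 h exposure. Readout CellTiter Glo luminescence; IC50 fit, potency also expressed as IC50 ratio against comparator K01 to normalise across batches.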

[7] = tested on: Namalwa (Lymphoma) cell line; experiment: Proliferation of Namalwa; type: cell-based; settings: for ratio of (IC50 of K01)/(IC50 of compound), Namalwa: value in parenthesis; for IC50: read-out: IC50 in μM Namalwa (Lymphoma)
How it was run: as §4

[8] = tested on: Mino (Lymphoma) cell line; experiment: Proliferation of Mino; type: cell-based
How it was run: as §4

PANC1 cells = experiment: Sphere formation assay (cancer stemness); type: cell-based; settings: Homo sapiens, PANC-1, read-out: concentration exhibiting at least 50% inhibition on the sphere forming efficiency
Protocol: A group of diterpenoid compounds of the present disclosure were tested to assess their effects on blocking formation of spheres from cancer cell lines such as PANC1, a K-Ras mutant pancreatic cell line. Briefly, PANC1 cells were harvested, re-suspended as single cell suspensions, counted and seeded into Ultra Low Attachment Culture 96-well plate (Corning, Cat #3474) at 100 cells/well in 100 μl of complete media (with 10% FBS) containing 2% Matrigel (Corning, Cat #354234) and DMSO or compounds. Six replicates per condition were seeded. The seeded cells were placed in the 37° C. tissue culture incubator. 10 μl of low serum containing media (with 0.1% FBS) was added to each well every week. Spheres formed after 3-4 weeks were counted. Sphere forming efficiency was expressed as percentage of # of spheres/# of cells seeded.

[9] = tested on: phosphorylation of CaMKii at T286 in Panc1 cells; experiment: CaMKii phosphorylation in Panc1 cell line (Western blot); type: cell-based; settings: 0.2 μM and 1 μM, 48 hours (FIG. 5)
Protocol: Panc1 (a pancreatic cancer cell line) cells (˜5-8 millions) were seeded in 10 cm dishes (or ˜2 millions in 6 cm dishes) and treated next day with prostratin (K-101, 0.2 μM and 1 μM) or 0.02 μM and […] of K101-C1347, -C134801, and -C134802 for 48 hours. Cells were then collected/lysed for Western blot analysis. Protein quantification, SDS-PAGE, and Western blot procedures were performed as described in Example 65, except that a different lysis buffer (1 ml of 10×TNE [20 mL 1M Tris pH7.5; 30 mL 5M NaCl; 2 mL 0.5M EDTA; 48 mL d2H2O], 1 ml of 10% NP40, 7.7 mL of dH2O, 100 μL of 10× Protease inhibitors, 100 μL of 10× Phosphatase inhibitors, and 10 μl DTT) was used. To assess the effect of diterpenoid compounds on CaMKii phosphorylation, a phospho-specific antibody P-CaMKii (T286) (Abcam, cat #32678) was used for detection. Phosphorylation of CaMKii at T286 is a marker for activation of CaMKii kinase in the Wnt/Ca^2+ signaling pathway when […] and thus a downstream marker for inhibition of K-Ras stemness (Wang et al., Cell. 2015, 163(5):1237-51).

[10] = Homo sapiens, KP-4, read-out: IC50 in μM KP-4 (Pancreatic)
[11] = Homo sapiens, HL-60, read-out: IC50 in μM HL-60 (Leukemia)
[12] = Homo sapiens, MINO, read-out: IC50 in μM Mino (Lymphoma)

T1 sequence (Q05655 230-280 limits assumed): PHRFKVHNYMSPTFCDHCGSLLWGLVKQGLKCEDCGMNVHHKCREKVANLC
T4 sequence (Q02156 242-292 limits assumed): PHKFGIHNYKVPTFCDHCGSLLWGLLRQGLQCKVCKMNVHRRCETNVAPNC

Compound	Ki (C1b domain of human PKCδ)	Ki (C1b domain of human PKCθ)	Ki (C1b domain of human PKCε)	Ki [1]	phosphorylation of PKC (PKD/PKCμ), PKCδ and Erk1/2 [2]	IC50 ([3]; A549, 96 h)	ratio of (IC50 of K01)/(IC50 of compound), Panc2.13 [4]	IC50 [4]	IC50 [5, 10]	ratio of (IC50 of K01)/(IC50 of compound), HL-60 ([6]; HL-60; value in parenthesis)	IC50 [6, 11]	ratio of (IC50 of K01)/(IC50 of compound), Namalwa [7]	IC50 [7]	IC50 [8, 12]	ratio of (IC50 of K01)/(IC50 of compound), Mino ([8]; Mino; value in parenthesis)	IC50 (PANC1 cells)	Ki (C1b domain of human PKCα)	other results
CC1=C[C@H]2[C@@]3(O)[C@H](C)C[C@]4(OC(=O)[C@@H](N)CCCc5ccccc5)[C@H]([C@@H]3C=C(CO)C[C@]2(O)C1=O)C4(C)C [Compound K101-C1319]	< 5 nM	5 to 10 nM	30 to 60 nM	< 5 nM	induced high levels of phosphorylation	0.06 to 0.1 µM	3.65	0.2 to 0.6 µM	0.1 to 0.2 µM	1.79	0.03 to 0.06 µM	1.53	0.03 to 0.06 µM	0.01 to 0.03 µM	6	≤ 1500 nM	–	Ki PKCα (C1b domain of human PKCα): E (E=>60 nM and ≤10 nM)
CC1=C[C@H]2[C@@]3(O)[C@H](C)C[C@]4(OC(=O)[C@@H](N)C5Cc6ccccc6C5)[C@H]([C@@H]3C=C(CO)C[C@]2(O)C1=O)C4(C)C [Compound K101-C1329]	< 5 nM	5 to 10 nM	1 to 30 nM	< 5 nM	induced high levels of phosphorylation	0.06 to 0.1 µM	5.82	0.1 to 0.2 µM	0.06 to 0.1 µM	1.79	0.03 to 0.06 µM	1.6	0.03 to 0.06 µM	0.01 to 0.03 µM	5.5	≤ 150 nM	30 to 60 nM	–
CC(=O)O[C@@]12C[C@@H](C)[C@@]3(O)[C@@H](C=C(CO)C[C@]4(O)C(=O)C(C)=C[C@@H]34)[C@@H]1C2(C)C [Compound K101, prostratin, reference compound]	–	–	–	–	–	–	–	0.6 to 1 µM	–	–	–	–	0.06 to 0.1 µM	–	–	–	–	phosphorylation of CaMKii at T286 [9]: induced phosphorylation of CaMKii at T286; IC50 ([3]; A549, 96 hours incubation, CellTiter Glo): 0.03 to 0.06 µM; IC50 ([5]; Homo sapiens, KP-4; read-out: IC50 in μM KP-4 (Pancreatic)): 0.2 to 0.6 µM; IC50 ([6]; Homo sapiens, HL-60; read-out: IC50 in μM HL-60 (Leukemia)): 0.2 to 0.6 µM; IC50 ([8]; Homo sapiens, MINO; read-out: IC50 in μM Mino (Lymphoma)): 0.06 to 0.1 µM; IC50 (PANC1 cells; PANC1 single cell suspension, spheres counted after 3-4 weeks): ≤ 500 nM
CC1=C[C@H]2[C@@]3(O)[C@H](C)C[C@]4(OC(=O)[C@@H](N)CCC5CCCCC5)[C@H]([C@@H]3C=C(CO)C[C@]2(O)C1=O)C4(C)C [Compound K101-C1345]	< 5 nM	1 to 30 nM	1 to 30 nM	< 5 nM	–	0.01 to 0.03 µM	20.5	0.03 to 0.06 µM	0.01 to 0.03 µM	27.7	0.01 to 0.03 µM	7.42	0.001 to 0.01 µM	0.001 to 0.01 µM	33	≤ 150 nM	30 to 60 nM	–
